# In ChEMBL document CHEMBL1129456, “Synthesis and evaluation of two positron-labeled nitric oxide synthase inhibitors, S-[11C]methylisothiourea and S-(2-[18F]fluoroethyl)isothiourea, as potential positron emission tomography tracers” (J Med Chem, 1996):
# Legend:
# [1] = organism: Rattus norvegicus; test: Biodistribution in bone of mature female Dawley rat after 10min, expressed as percent injected dose/g; format: ADME, organism-based, Bone element; conditions: in vivo
# [2] = organism: Rattus norvegicus; test: Biodistribution inl ilver of mature female Dawley rat after 30min, expressed as percent injected dose/g; format: ADME, organism-based; conditions: in vivo, 0.5 h
# [3] = organism: Rattus norvegicus; test: Biodistribution in brain of mature female Dawley rat after 30min, expressed as percent injected dose/g; format: ADME, organism-based; conditions: in vivo, 0.5 h
# [4] = organism: Rattus norvegicus; test: Biodistribution in fat of mature female Dawley rat after 30min, expressed as percent injected dose/g; format: ADME, organism-based, Adipose tissue; conditions: in vivo, 0.5 h
# [5] = organism: Rattus norvegicus; test: Biodistribution in abdominal Dawley rat after 30min, expressed as percent injected dose/g; format: ADME, organism-based; conditions: in vivo, 0.5 h
# [6] = organism: Rattus norvegicus; test: Biodistribution in brain of mature female Dawley rat after 3 h, expressed as percent injected dose/g; format: ADME, organism-based; conditions: in vivo
# [7] = organism: Rattus norvegicus; test: Biodistribution in brain of mature female Dawley rat after 1h, expressed as percent injected dose/g; format: ADME, organism-based; conditions: in vivo
# [8] = organism: Rattus norvegicus; test: Biodistribution in abdominal of mature female Dawley rat after 3 h, expressed as percent injected dose/g; format: ADME, organism-based, Abdominal cavity; conditions: in vivo
# [9] = organism: Rattus norvegicus; test: Biodistribution inl liver of mature female Dawley rat after 1h, expressed as percent injected dose/g; format: ADME, organism-based; conditions: in vivo
# [10] = organism: Rattus norvegicus; test: Biodistribution in fat of mature female Dawley rat after 1h, expressed as percent injected dose/g; format: ADME, organism-based, Adipose tissue; conditions: in vivo
# [11] = organism: Rattus norvegicus; test: Biodistribution in liver of mature female Dawley rat after 10min, expressed as percent injected dose/g; format: ADME, organism-based; conditions: in vivo
# [12] = organism: Rattus norvegicus; test: Biodistribution in bone of mature female Dawley rat after 1h, expressed as percent injected dose/g; format: ADME, organism-based, Bone element; conditions: in vivo
# [13] = organism: Rattus norvegicus; test: Biodistribution in kidney of mature female Dawley rat after 3 h, expressed as percent injected dose/g; format: ADME, organism-based; conditions: in vivo
# [14] = organism: Rattus norvegicus; test: Biodistribution in kidney of mature female Dawley rat after 30min, expressed as percent injected dose/g; format: ADME, organism-based; conditions: in vivo, 0.5 h
# [15] = organism: Rattus norvegicus; test: Biodistribution in muscle of mature female Dawley rat after 1h, expressed as percent injected dose/g; format: ADME, organism-based, Muscle tissue; conditions: in vivo
# [16] = organism: Rattus norvegicus; test: Biodistribution in blood of mature female Dawley rat after 30min, expressed as percent injected dose/g; format: ADME, organism-based; conditions: in vivo, 0.5 h
# [17] = organism: Rattus norvegicus; test: Biodistribution inl iver of mature female Dawley rat after 3 h, expressed as percent injected dose/g; format: ADME, organism-based, Liver; conditions: in vivo
# [18] = organism: Rattus norvegicus; test: Biodistribution in lung of mature female Dawley rat after 3 h, expressed as percent injected dose/g; format: ADME, organism-based; conditions: in vivo
# [19] = organism: Rattus norvegicus; test: Biodistribution in heart of mature female Dawley rat after 10min, expressed as percent injected dose/g; format: ADME, organism-based; conditions: in vivo
# [20] = organism: Rattus norvegicus; test: Biodistribution in blood of mature female Dawley rat after 1h, expressed as percent injected dose/g; format: ADME, organism-based; conditions: in vivo
# [21] = organism: Rattus norvegicus; test: Biodistribution in kidney of mature female Dawley rat after 10min, expressed as percent injected dose/g; format: ADME, organism-based; conditions: in vivo
# [22] = organism: Rattus norvegicus; test: Biodistribution in fat of mature female Dawley rat after 3 h, expressed as percent injected dose/g; format: ADME, organism-based, Adipose tissue; conditions: in vivo
# [23] = organism: Rattus norvegicus; test: Biodistribution in muscle of mature female Dawley rat after 30min, expressed as percent injected dose/g; format: ADME, organism-based, Muscle tissue; conditions: in vivo, 0.5 h
# [24] = organism: Rattus norvegicus; test: Biodistribution in blood of mature female Dawley rat after 3 h, expressed as percent injected dose/g; format: ADME, organism-based; conditions: in vivo
# [25] = organism: Rattus norvegicus; test: Biodistribution in blood of mature female Dawley rat after 10min, expressed as percent injected dose/g; format: ADME, organism-based; conditions: in vivo
# [26] = organism: Rattus norvegicus; test: Biodistribution in muscle of mature female Dawley rat after 3 h, expressed as percent injected dose/g; format: ADME, organism-based, Muscle tissue; conditions: in vivo
# [27] = organism: Rattus norvegicus; test: Biodistribution in kidney of mature female Dawley rat after 1h, expressed as percent injected dose/g; format: ADME, organism-based; conditions: in vivo
# [28] = organism: Rattus norvegicus; test: Biodistribution in abdominal of mature female Dawley rat after 10min, expressed as percent injected dose/g; format: ADME, organism-based, Abdominal cavity; conditions: in vivo
# [29] = organism: Rattus norvegicus; test: Biodistribution in heart of mature female Dawley rat after 1h, expressed as percent injected dose/g; format: ADME, organism-based; conditions: in vivo
# [30] = organism: Rattus norvegicus; test: Biodistribution in bone of mature female Dawley rat after 3 h, expressed as percent injected dose/g; format: ADME, organism-based, Bone element; conditions: in vivo
# [31] = organism: Rattus norvegicus; test: Biodistribution in bone of mature female Dawley rat after 30min, expressed as percent injected dose/g; format: ADME, organism-based, Bone element; conditions: in vivo, 0.5 h
# [32] = organism: Rattus norvegicus; test: Biodistribution in muscle of mature female Dawley rat after 10min, expressed as percent injected dose/g; format: ADME, organism-based, Muscle tissue; conditions: in vivo
# [33] = organism: Rattus norvegicus; test: Biodistribution in brain of mature female Dawley rat after 10min, expressed as percent injected dose/g; format: ADME, organism-based; conditions: in vivo
# [34] = organism: Rattus norvegicus; test: Biodistribution in abdominal of mature female Dawley rat after 1h, expressed as percent injected dose/g; format: ADME, organism-based, Abdominal cavity; conditions: in vivo
# [35] = organism: Rattus norvegicus; test: Biodistribution in lung of mature female Dawley rat after 30min, expressed as percent injected dose/g; format: ADME, organism-based; conditions: in vivo, 0.5 h
# [36] = organism: Rattus norvegicus; test: Biodistribution in heart of mature female Dawley rat after 30min, expressed as percent injected dose/g; format: ADME, organism-based; conditions: in vivo, 0.5 h
# [37] = organism: Rattus norvegicus; test: Biodistribution in lung of mature female Dawley rat after 1h, expressed as percent injected dose/g; format: ADME, organism-based; conditions: in vivo
# [38] = organism: Rattus norvegicus; test: Biodistribution in fat of mature female Dawley rat after 10min, expressed as percent injected dose/g; format: ADME, organism-based, Adipose tissue; conditions: in vivo
# [39] = organism: Rattus norvegicus; test: Biodistribution in heart of mature female Dawley rat after 3 h, expressed as percent injected dose/g; format: ADME, organism-based; conditions: in vivo
# [40] = organism: Rattus norvegicus; test: Biodistribution in lung of mature female Dawley rat after 10min, expressed as percent injected dose/g; format: ADME, organism-based; conditions: in vivo
compound,measurement,setting,value
N=C(N)SCC[18F],Biodistribution,[1],0.55%
same,Biodistribution,[2],0.51%
same,Biodistribution,[3],0.15%
same,Biodistribution,[4],0.07%
same,Biodistribution,[5],0.31%
same,Biodistribution,[6],0.16%
same,Biodistribution,[7],0.17%
same,Biodistribution,[8],0.16%
same,Biodistribution,[9],0.35%
same,Biodistribution,[10],0.07%
same,Biodistribution,[11],0.95%
same,Biodistribution,[12],0.88%
same,Biodistribution,[13],0.21%
same,Biodistribution,[14],1.06%
same,Biodistribution,[15],0.32%
same,Biodistribution,[16],0.27%
same,Biodistribution,[17],0.16%
same,Biodistribution,[18],0.17%
same,Biodistribution,[19],0.62%
same,Biodistribution,[20],0.32%
same,Biodistribution,[21],1.82%
same,Biodistribution,[22],0.04%
same,Biodistribution,[23],0.38%
same,Biodistribution,[24],0.19%
same,Biodistribution,[25],0.32%
same,Biodistribution,[26],0.14%
same,Biodistribution,[27],0.64%
same,Biodistribution,[28],0.38%
same,Biodistribution,[29],0.29%
same,Biodistribution,[30],1.19%
same,Biodistribution,[31],0.82%
same,Biodistribution,[32],0.33%
same,Biodistribution,[33],0.14%
same,Biodistribution,[34],0.26%
same,Biodistribution,[35],0.57%
same,Biodistribution,[36],0.37%
same,Biodistribution,[37],0.38%
same,Biodistribution,[38],0.08%
same,Biodistribution,[39],0.16%
same,Biodistribution,[40],1.02%
